Results on 37 compounds are retold here after patent US6544987B2, “Compounds, compositions, and methods for stimulating neuronal growth and elongation” (Pfizer Inc., priority 1999, dated 2003).

Values joined by “and” are separate entries in the source; they are usually repeats but may differ in a detail not shown here. Equal entries are not always repeated. A value given as a limit tells only on which side of the number the result lay.

The assay deals with FKBP12 (Homo sapiens, UniProt P62942). In words: Affinity for FKBP-12 (Ki), succinyl-Ala-Leu-Pro-Phe-pNA chymotrypsin-coupled assay. The format is biochemical. Particulars: Table 2; read-out: FKBP12 Kiapps. How it is done: In a quartz cuvette, a final 1 mL buffer concentration was reached (50 mM Hepes, 100 mM NaCl, pH 8.0). Within this final reaction volume, 3.5 μL […] FKBP-12 (in 50 mM Hepes, 100 mM NaCl, pH 8.0) and 10 μL test compound in DMSO were added. The reaction was initiated by adding 10 μL chymotrypsin (100 mg/mL in 1 mM HCl) followed by 5 μL (1-20 mM succinyl-Ala-Leu-Pro-Phe-pNA in 240 mM LiCl/TFE).
FKBP12, sequence (P62942 whole entry, species assumed): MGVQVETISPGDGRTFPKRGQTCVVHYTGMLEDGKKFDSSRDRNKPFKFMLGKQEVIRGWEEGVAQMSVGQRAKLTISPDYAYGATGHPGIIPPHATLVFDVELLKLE
The absorbance at 390 nm versus time was monitored for up to 400 seconds. Rate constants were determined from the absorbance versus time plots generated.
Consider `O=C(OCCCCc1ccccc1)[C@@H]1CCCCN1S(=O)(=O)Oc1ccccc1` [Compound 13, 1-Phenoxy sulfonyl-piperidine-2S-carboxylic acid 4-phenyl-butyl ester], for which the Ki came to 6.5 µM.

`O=C(OCc1ccccc1)[C@@H]1CCCN1S(=O)(=O)Oc1ccccc1` [Compound 15, 1-Phenoxy sulfonyl-pyrrolidine-2S-carboxylic acid benzyl ester]: the Ki was 27.7 µM.

Consider `CCC(C)(C)NS(=O)(=O)N1CCC[C@H]1C(=O)OCc1ccccc1` [Compound 27, 1-(1,1-Dimethyl-propylsulfamoyl)-pyrrolidine-2S-carboxylic acid Benzyl ester], for which the Ki came to 2.8 µM. Under `O=C(OCc1ccccc1)[C@@H]1CCCN1S(=O)(=O)Nc1ccccc1` [Compound 28, 1-Phenylsulfamoyl-pyrrolidine-2S-carboxylic acid Benzyl ester] stands 19.7 µM. Under `COc1cc(NS(=O)(=O)N2CCC[C@H]2C(=O)OCc2ccccc2)cc(OC)c1OC` [Compound 29, 1-(3,4,5-Trimethoxy-phenylsulfamoyl)-pyrrolidine-2S-carboxylic acid Benzyl ester] stands 34.4 µM; under `COc1cc(NS(=O)(=O)N2CCCC[C@H]2C(=O)OCc2ccccc2)cc(OC)c1OC` [Compound 36, 1-(3,4,5-Trimethoxy-phenylsulfamoyl)-piperidine-2S-carboxylic acid Benzyl ester], 0.398 µM. Under `NS(=O)(=O)N1CCCC[C@H]1C(=O)OCc1ccccc1` [Compound 37, 1-sulfamoyl-piperidine-2S-carboxylic acid Benzyl ester] stands 122 µM. On to `CCC(C)(C)NS(=O)(=O)N1CCCC[C@H]1C(=O)OCc1ccccc1` [Compound 38, 1-(1,1-Dimethyl-propylsulfamoyl)-piperidine-2S-carboxylic acid Benzyl ester], for which the Ki worked out at 0.678 µM. Under `COc1cc(NS(=O)(=O)N2CCCC[C@H]2C(=O)O)cc(OC)c1OC` [Compound 39, 1-(3,4,5-Trimethoxy-phenylsulfamoyl)-piperidine-2S-carboxylic acid] stands above 100 µM.

As to `COc1cc(N2C(=O)[C@@H]3CCCCN3S2(=O)=O)cc(OC)c1OC` [Compound 40, 1,1-Dioxo-2-(3,4,5-trimethoxy-phenyl)-hexahydro-1-[1,2,5] Thiadiazolo [2,3-] pyridin-3-one], the Ki came out at 228 µM.

Regarding `NS(=O)(=O)N1CCCC[C@H]1C(=O)OCCCCc1ccccc1` [Compound 41, 1-Sulfamoyl-piperidine-2S-carboxylic acid 4-phenyl-butyl ester], the Ki was 38 µM.

Consider `O=C(OCCCCc1ccccc1)[C@@H]1CCCCN1S(=O)(=O)Nc1ccc(N2CCOCC2)cc1` [Compound 42, (S)-1-(4-morpholin-4-yl-phenylsulfamoyl)-piperidine-2-carboxylic 4-phenyl-butyl ester], for which the Ki came out at 0.266 µM. Consider `COc1ccc(N(C)S(=O)(=O)N2CCCC[C@H]2C(=O)OCCCCc2ccccc2)cc1` [Compound 43, 1-[(4-methoxy-phenyl)-methyl-sulfamoyl]-piperidine-2S-carboxylic acid 4-phenyl-butyl ester], for which the Ki worked out at 19.2 µM. Under `CN(c1ccccc1)S(=O)(=O)N1CCCC[C@H]1C(=O)OCCCCc1ccccc1` [Compound 44, 1-(Methyl-phenyl-sulfamoyl)-piperidine-2S-carboxylic acid 4-phenyl-butyl ester] stands 12 µM; under `O=C(OCCCCc1ccccc1)[C@@H]1CCCCN1S(=O)(=O)Nc1ccc2[nH]c(=O)[nH]c2c1` [Compound 45, 1-(2-Oxo-2,3-dihydro-1H-benzoimidazol-5-ylsulfamoyl)-piperidine-2-carboxylic acid 4-phenyl-butyl ester], 0.084 µM. As for `COc1ccc2nc(NS(=O)(=O)N3CCCC[C@H]3C(=O)OCCCCc3ccccc3)sc2c1` [Compound 46, 1-(6-Methoxy-benzothiazol-2-ylsulfamoyl)-piperidine-2S-carboxylic acid 4-phenyl-butyl ester], the Ki is 37 µM. The figure for `O=C(OCCCCc1ccccc1)[C@@H]1CCCCN1S(=O)(=O)Nn1cccc1` [Compound 47, 1-(Pyrrol-1-ylsulfamoyl)-piperidine-2S-carboxylic acid 4-phenylbutyl ester] is 1.6 µM.

As for `COc1cc(NS(=O)(=O)N2CCCC[C@H]2C(=O)OCCCCc2ccccc2)cc(OC)c1` [Compound 48, 1-(3,5-Dimethoxy-phenylsulfamoyl)-piperidine-2S-carboxylic acid 4-phenyl-butyl ester], the Ki is 0.344 µM. Under `COc1ccc(NS(=O)(=O)N2CCCC[C@H]2C(=O)OCCCCc2ccccc2)cn1` [Compound 49, 1-(6-methoxy-pyridin-3-ylsulfamoyl)-piperidine-2S-carboxylic acid 4-phenyl-butyl ester] stands 0.08 µM. The figure for `NC(=O)C1CCCN(S(=O)(=O)N2CCCC[C@H]2C(=O)OCCCCc2ccccc2)C1` (stereo partly drawn) [Compound 51, 1-(3-Carbamoyl-piperidine-1-sulfonyl)-piperidine-2S-carboxylic acid 4-phenyl-butyl ester] is 0.93 µM; for `O=C(OCCCCc1ccccc1)[C@@H]1CCCCN1S(=O)(=O)Nc1ccc(Cl)nc1` [Compound 52, (S)-1-(6-Chloro-pyridin-3-ylsulfamoyl)-piperidine-2-carboxylic acid 4-phenyl-butyl ester] it is 0.152 µM; for `COC(OC)c1ccn(S(=O)(=O)N2CCCC[C@H]2C(=O)OCCCCc2ccccc2)n1` [Compound 53, 1-(3-Dimethoxymethyl-pyrazole-1-sulfonyl)-peperidine-2-carboxyic acid 4-phenyl-butyl ester] it is 2.9 µM. As for `COc1ccc(N(C)S(=O)(=O)N2CCCC[C@H]2C(=O)OCCCCc2ccccc2)cc1[N+](=O)[O-]` [Compound 54, (S)-1-[(4-Methoxy-3-nitro-phenyl)-methyl-sulfamoyl]-piperidine-2-carboxylic acid 4-phenyl-butyl ester], the Ki was found to be 26 µM. The figure for `COc1ccc(N(C)S(=O)(=O)N2CCCC[C@H]2C(=O)OCCCCc2ccccc2)cc1N` [Compound 55, (S)-1-[(3-Amino-4-methoxy-phenyl)-methyl-sulfamoyl]-piperidine-2-carboxylic acid 4-phenyl-butyl ester] is 13.1 µM; for `O=C(OCCCCc1ccccc1)[C@@H]1CCCCN1S(=O)(=O)Nc1ccc2nc[nH]c2c1` [Compound 56, (S)-1-(3H-Benzoimidazol-5-ylsulfamoyl)-piperidine-2-carboxylic acid 4-phenyl-butyl ester] it is 0.477 µM. Turning to `COc1cc(NS(=O)(=O)N2CCCC[C@H]2C(=O)NCCCCc2ccccc2)cc(OC)c1OC` [Compound 59, (S)-1-(3,4,5-Trimethoxy-phenylsulfamoyl)-piperidine-2-carboxylic acid (4-phenyl-butyl)-amide], the Ki came to 0.148 µM. Take `NS(=O)(=O)N1CCSCC1C(=O)OCCCCc1ccccc1` (stereo not shown) [Compound 67, 4-sulfamoyl-thiomorpholine-3-carboxylic acid 4-phenyl-butyl ester]: the Ki was 329 µM and 267 µM. In the case of `COc1cc(NS(=O)(=O)N2CCSCC2C(=O)OCCCCc2ccccc2)cc(OC)c1OC` (stereo not shown) [Compound 68, 4-(3,4,5-trimethoxy-phenylsulfamoyl)-thiomorpholine-3-carboxylic acid 4-phenyl-butyl ester], the Ki was 4.41 µM and 6.4 µM. The figure for `O=C(OCCCCc1ccccc1)C1CSCCN1S(=O)(=O)Nc1ccccc1` (stereo not shown) [Compound 69, 4-Phenylsulfamoyl-thiomorpholine-3-carboxylic acid 4-phenyl-butyl ester] is 5.2 µM; for `O=C(OCCCCc1ccccc1)C1CSCCN1S(=O)(=O)Nc1ccc2[nH]c(=O)[nH]c2c1` (stereo not shown) [Compound 70, 4-(2-Oxo-2,3-dihydro-1H-benzoimidazol-5-ylsulfamoyl)-thiomorpholine-3-carboxylic acid 4-phenyl-butyl ester] it is 0.96 µM; for `CN(C)S(=O)(=O)N1CCCC[C@H]1c1nnc(Cc2ccccc2)o1` [Compound 75, 2S-(5-Benzyl-[1,3,4]oxadiazol-2-yl)-piperidine-1-sulfonic acid dimethylamide] it is 107 µM. `O=S(=O)(Nc1ccccc1)N1CCCC[C@H]1c1nnc(Cc2ccccc2)o1` [Compound 76, 2S-(5-Benzyl-[1,3,4]oxadiazol-2-yl)-piperidine-1-sulfonic acid phenylamide]: the Ki is 1.3 µM. The figure for `COc1ccc(N(C)S(=O)(=O)N2CCCC[C@H]2c2nnc(Cc3ccccc3)o2)cc1` [Compound 77, 2-(5-Benzyl-[1,3,4]oxadiazol-2-yl)-piperidine-1-sulfonic acid (4-methoxy-phenyl)-methyl-amide] is 68 µM; for `COc1cc(NS(=O)(=O)N2CCCC[C@H]2c2nnc(Cc3ccccc3)o2)cc(OC)c1OC` [Compound 78, 2-(5-Benzyl-[1,3,4]oxadiazol-2-yl)-piperidine-1-sulfonic acid (3,4,5-trimethoxy-phenyl)-amide] it is 5.2 µM; for `COc1cc(NS(=O)(=O)N2[C@H]3CC[C@H](C3)[C@H]2C(=O)OCCCCc2ccccc2)cc(OC)c1OC` [Compound 85, 2-(3,4,5-Trimethoxy-phenylsulfamoyl)-2-aza-bicyclo[2.2.1]heptane-endo-3-carboxylic acid 4-phenyl-butyl ester] it is 1.6 µM.

Turning to `O=C(OCc1ccccc1)[C@@H]1CCCCN1S(=O)(=O)Nc1ccc(N2CCOCC2)nc1` [Compound 86, (S)-1-(6-Morpholin-4-yl-pyridin-3-ylsulfamoyl)-piperidine-2-carboxylic acid Benzyl ester], the Ki was 1.79 µM and 1.17 µM. Under `COc1ccc(NS(=O)(=O)N2CCCC[C@H]2C(=O)OCc2ccccc2)cn1` [Compound 87, 1-(6-Methoxy-pyridin-3-ylsulfamoyl)-piperidine-2S-carboxylic acid Benzyl ester] stands 0.76 µM.
